Results taken from ChEMBL document CHEMBL4033668, “Inhibitors of cytochrome P450 (CYP) 1B1” (Eur J Med Chem, 2017).

Experiments:
[1] = target: T1, Cytochrome P450 1B1 (Homo sapiens, UniProt Q16678); test: Competitive inhibition of CYP1B1 (unknown origin) expressed in yeast microsomes using (-)benzo[a]pyrene-7R-trans-7,8-dihyrodiol (B[a]P-7,8-diol) as substrate
T1 sequence (Q16678 whole entry): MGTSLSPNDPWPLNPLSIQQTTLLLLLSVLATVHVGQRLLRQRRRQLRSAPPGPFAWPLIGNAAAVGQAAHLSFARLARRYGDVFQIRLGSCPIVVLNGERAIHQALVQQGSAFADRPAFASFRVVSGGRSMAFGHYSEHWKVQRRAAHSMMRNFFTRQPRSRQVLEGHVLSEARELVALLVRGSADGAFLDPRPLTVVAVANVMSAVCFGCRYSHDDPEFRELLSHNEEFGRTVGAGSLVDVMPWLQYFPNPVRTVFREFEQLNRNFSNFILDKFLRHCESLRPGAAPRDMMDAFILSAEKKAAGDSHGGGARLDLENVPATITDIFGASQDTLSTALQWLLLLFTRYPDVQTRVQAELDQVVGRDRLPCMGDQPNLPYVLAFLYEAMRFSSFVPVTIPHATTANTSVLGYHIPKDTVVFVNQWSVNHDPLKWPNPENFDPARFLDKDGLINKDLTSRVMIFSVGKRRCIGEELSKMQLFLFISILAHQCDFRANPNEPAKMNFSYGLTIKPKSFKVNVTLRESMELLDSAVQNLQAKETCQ

[2] = target: T1, Cytochrome P450 1B1; test: Inhibition of recombinant CYP1B1 (unknown origin) expressed in supersomes coexpressing NADPH-CYP reductase using 7-ethoxyresorufin as substrate after 15 mins in presence of NADP+ by fluorescence spectrophotometric analysis
[3] = target: T1, Cytochrome P450 1B1; test: Inhibition of recombinant CYP1B1 (unknown origin) expressed in supersomes coexpressing NADPH-CYP reductase using 7-ethoxyresorufin as substrate after 15 mins in presence of NADP+ by Lineweaver-Burk plot analysis
[4] = target: T1, Cytochrome P450 1B1; test: Inhibition of recombinant human CYP1B1 expressed in supersomes coexpressing NADPH-CYP reductase using 7-ethoxyresorufin as substrate after 15 mins in presence of NADP+ by Lineweaver-Burk plot analysis
[5] = target: T1, Cytochrome P450 1B1; test: Inhibition of recombinant human CYP1B1 expressed in Escherichia coli coexpressing human NADPH-cytochrome P450 reductase using 7-ethoxyresorufin as substrate by fluorescence spectrophotometric analysis
[6] = target: T1, Cytochrome P450 1B1; test: Inhibition of human CYP1B1 expressed in Escherichia coli DH5alpha coexpressing human NADPH P450 reductase using 7-ethoxyresorufin as substrate in presence of NADP+ by spectrofluorometeric analysis
[7] = target: T1, Cytochrome P450 1B1; test: Inhibition of recombinant CYP1B1 (unknown origin) expressed in Escherichia coli DH5alphaF'Iq coexpressing human NADPH-P450 reductase using E2-d4 as substrate after 10 mins in presence of NADP+
[8] = target: T1, Cytochrome P450 1B1; test: Inhibition of CYP1B1 (unknown origin) expressed in Escherichia coli DH5alpha coexpressing human NADPH-P450 reductase using 7-Ethoxyresorufin as substrate up to 6 mins in presence of NADP+ by spectrofluorometric analysis
[9] = target: T2, Cytochrome P450 1A1 (Homo sapiens, UniProt P04798); test: Inhibition of CYP1A1 (unknown origin) expressed in Escherichia coli DH5alpha coexpressing human NADPH-P450 reductase using 7-Ethoxyresorufin as substrate up to 6 mins in presence of NADP+ by spectrofluorometric analysis; format: ADME
T2 sequence (P04798 whole entry): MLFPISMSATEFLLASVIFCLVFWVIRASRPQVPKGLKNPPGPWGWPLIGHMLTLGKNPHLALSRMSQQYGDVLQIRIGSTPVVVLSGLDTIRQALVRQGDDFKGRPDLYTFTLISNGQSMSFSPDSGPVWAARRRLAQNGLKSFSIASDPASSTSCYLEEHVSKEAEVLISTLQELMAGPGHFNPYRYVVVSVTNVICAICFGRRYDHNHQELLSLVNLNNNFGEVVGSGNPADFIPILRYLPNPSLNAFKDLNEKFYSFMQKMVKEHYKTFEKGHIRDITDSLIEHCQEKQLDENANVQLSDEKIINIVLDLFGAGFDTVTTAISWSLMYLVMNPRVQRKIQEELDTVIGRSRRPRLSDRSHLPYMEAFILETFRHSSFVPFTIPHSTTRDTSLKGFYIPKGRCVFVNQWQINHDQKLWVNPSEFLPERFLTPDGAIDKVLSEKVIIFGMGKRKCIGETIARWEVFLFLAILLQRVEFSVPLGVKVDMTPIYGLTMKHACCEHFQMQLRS

[10] = target: T3, Cytochrome P450 1A2 (Homo sapiens, UniProt P05177); test: Inhibition of CYP1A2 (unknown origin) expressed in Escherichia coli DH5alpha coexpressing human NADPH-P450 reductase using 7-Ethoxyresorufin as substrate up to 6 mins in presence of NADP+ by spectrofluorometric analysis; format: ADME
T3 sequence (P05177 whole entry): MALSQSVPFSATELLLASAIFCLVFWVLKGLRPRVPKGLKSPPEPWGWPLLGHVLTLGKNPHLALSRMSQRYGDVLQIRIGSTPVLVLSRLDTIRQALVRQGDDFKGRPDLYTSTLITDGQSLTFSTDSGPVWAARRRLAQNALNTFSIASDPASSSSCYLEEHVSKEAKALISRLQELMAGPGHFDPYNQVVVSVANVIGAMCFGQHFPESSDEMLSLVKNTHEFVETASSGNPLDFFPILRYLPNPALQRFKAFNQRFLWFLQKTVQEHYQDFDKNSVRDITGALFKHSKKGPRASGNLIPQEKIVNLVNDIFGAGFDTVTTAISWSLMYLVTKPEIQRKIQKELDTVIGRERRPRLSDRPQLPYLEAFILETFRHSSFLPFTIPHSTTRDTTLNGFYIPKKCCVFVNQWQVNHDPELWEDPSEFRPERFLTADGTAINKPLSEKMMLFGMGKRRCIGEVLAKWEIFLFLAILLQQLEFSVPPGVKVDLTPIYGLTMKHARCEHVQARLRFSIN

[11] = target: T2, Cytochrome P450 1A1; test: Inhibition of recombinant human CYP1A1 expressed in supersomes coexpressing NADPH-CYP reductase using 7-ethoxyresorufin as substrate after 15 mins in presence of NADP+ by Lineweaver-Burk plot analysis; format: ADME
[12] = target: T2, Cytochrome P450 1A1; test: Inhibition of […] CYP1A1 expressed in Escherichia coli DH5alpha coexpressing NADPH-P450 reductase using 7-ethoxyresorufin O-deethylation as substrate in presence of NADPH by UV absorbance analysis; format: ADME
[13] = target: T3, Cytochrome P450 1A2; test: Inhibition of […] CYP1A2 expressed in Escherichia coli DH5alpha coexpressing NADPH-P450 reductase using 7-ethoxyresorufin O-deethylation as substrate in presence of NADPH by UV absorbance analysis; format: ADME
[14] = target: T1, Cytochrome P450 1B1; test: Inhibition of […] CYP1B1 expressed in Escherichia coli DH5alpha coexpressing NADPH-P450 reductase using 7-ethoxyresorufin O-deethylation as substrate in presence of NADPH by UV absorbance analysis
[15] = species: Homo sapiens; test: Selectivity index, ratio of IC50 for human CYP1A1 expressed in Escherichia coli DH5alpha coexpressing human NADPH P450 reductase to IC50 for human CYP1B1 expressed in Escherichia coli DH5alpha coexpressing human NADPH P450 reductase
[16] = target: T2, Cytochrome P450 1A1; test: Inhibition of recombinant human CYP1A1 expressed in Escherichia coli coexpressing human NADPH-cytochrome P450 reductase using 7-ethoxyresorufin as substrate by fluorescence spectrophotometric analysis; format: ADME
[17] = species: Homo sapiens; test: Selectivity index, ratio of IC50 for recombinant human CYP1A1 expressed in Escherichia coli coexpressing human NADPH-cytochrome P450 reductase to IC50 for recombinant human CYP1B1 expressed in Escherichia coli coexpressing human NADPH-cytochrome P450 reductase
[18] = target: T2, Cytochrome P450 1A1; test: Inhibition of recombinant CYP1A1 (unknown origin) expressed in Escherichia coli DH5alphaF'Iq coexpressing human NADPH-P450 reductase using E2-d4 as substrate after 10 mins in presence of NADP+; format: ADME
[19] = target: T1, Cytochrome P450 1B1; test: Inhibition of human CYP1B1 expressed in Escherichia coli DH5alpha coexpressing human NADPH P450 reductase using 7-ethoxyresorufin as substrate in presence of NADP+ by fluorimetric analysis

CC(C)=CCOc1c2occc2cc2ccc(=O)oc12 [PENTOSALEN]
Ki [1]: 1000 nM

CC(C)=CCOc1c2ccoc2cc2oc(=O)ccc12 [ISOIMPERATORIN]
Ki [1]: 6000 nM

COc1cccc(/C=C/c2ccc(SC)cc2)c1
Ki [2]: 500 nM
Ki [3]: 30 nM

Oc1ccc(/C=C/c2cc(O)cc(O)c2)cc1 [RESVERATROL]
Ki [2]: 11200 nM
Ki [4]: 800 nM

O=C1c2ccccc2C(=O)c2c1ccc(O)c2O [ATHRAQUINONES A]
Ki [5]: 500 nM

COc1ccccc1/C=C/c1ccc(SC)cc1
Ki [2]: 300 nM
Ki [3]: 41 nM

COc1ccc(-c2cc(=O)c3c(O)cc(O)cc3o2)cc1OC
IC50 [6]: 19 nM

COc1c(O)ccc2c1CC[C@@H]1[C@@H]2CC[C@]2(C)[C@@H](O)CC[C@@H]12
Ki [7]: 149000 nM

COc1c2ccoc2c(OC)c2oc(=O)ccc12 [ISOPIMPINELLIN]
Ki [1]: 11000 nM

N#C[Se]Cc1cccc(C[Se]C#N)c1
IC50 [8]: 130 to 270 nM
IC50 [9]: 100 to 450 nM
IC50 [10]: 200 to 1300 nM

COc1cc(O)cc(/C=C/c2ccc(O)cc2)c1
Ki [11]: 130 nM

O=c1c2ccccc2nc2n1CCc1c-2[nH]c2ccc(O)cc12
IC50 [12]: 2560 nM
IC50 [13]: 2570 nM
IC50 [14]: 90 nM

c1cc2ccc3cccc4ccc(c1)c2c34
Ratio IC50 [15]: 20.5

O=C1c2ccccc2C(=O)c2c(O)c(O)cc(O)c21 [PURPURIN]
IC50 [5]: 2200 nM
Ki [5]: 700 nM
IC50 [16]: 5500 nM
Ratio IC50 [17]: 2.5

CNCCC(Oc1ccc(C(F)(F)F)cc1)c1ccccc1 (stereo unspecified) [FLUOXETINE]
IC50 [8]: 475000 nM

COc1cc2c(cc1O)[C@H]1CC[C@]3(C)[C@@H](O)CC[C@H]3[C@@H]1CC2
Ki [18]: 69000 nM
Ki [7]: 28000 nM

N#C[Se]Cc1ccccc1 [BENZYLSELENOCYANATE]
IC50 [8]: 130 to 270 nM
IC50 [9]: 100 to 450 nM
IC50 [10]: 200 to 1300 nM

c1ccc2c(c1)ccc1cc3c(ccc4ccccc43)cc12
IC50 [19]: 9 nM
